Earlier results in patent publication US7449451B2, “Use of multiple antioxidant micronutrients as systemic biological radioprotective agents against potential ionizing radiation risks” (priority 2002, dated 2008).

How the values were obtained:
[1] = tested on: glutathione
[2] = tested on: human beings
[3] = in vivo
[4] = tested on: animals
[5] = tested on: mitotic cells; details: mitotic cells treated with cysteamine
[6] = tested on: mice
[7] = tested on: mammalian cells in culture
[8] = tested on: animals and humans

For `O=C(O)CCCCC1CCSS1` (stereo not drawn) [alpha lipoic acid], the “intracellular levels of glutathione” value [1] is given as “actively increase the intracellular levels of glutathione without causing any toxicity” and the tolerability in humans [2] is given as “tolerated by humans very well”.

For `N[C@@H](CCC(=O)N[C@@H](CS)C(=O)NCC(=O)O)C(=O)O` [Glutathione, glutathione], the “hydrolysis in the intestine when ingested” value [3] is listed as “completely hydrolyzed in the intestine”.

For `NCCS` [cysteamine], the “protection against bone marrow and gastrointestinal radiation syndromes” value [4] is given as “protects animals against bone marrow (2, 31) and gastrointestinal (32) radiation syndromes”, the “resistance of mitotic cells to radiation” value [5] is given as “became very resistant to radiation” and the “toxicity when administered to human beings” value ([2]; humans) is given as “extremely toxic”.

For vitamin E, the “protection against lethal doses of cobalt-60” value [6] is listed as “good protection”.

For `CC1=C(/C=C/C(C)=C/C=C/C(C)=C/C=C/C=C(C)/C=C/C=C(C)/C=C/C2=C(C)CCCC2(C)C)C(C)(C)CCC1` [natural beta-carotene, beta-carotene], the “reduction of radiation-induced transformation” value [7] is listed as “most effectively reduces radiation-induced transformation” and the radioprotectant value [8] is listed as “marked radioprotectant value”.

For `Cc1c(C)c2c(c(C)c1OC(=O)CCC(=O)O)CC[C@@](C)(CCC[C@H](C)CCC[C@H](C)CCCC(C)C)O2` [d-alpha tocopheryl succinate], the “reduction of radiation-induced transformation” value [7] is listed as “actively reduces the incidence of radiation-induced transformation” and the radioprotectant value [8] is listed as “marked radioprotectant value”.

For `CC(=O)N[C@@H](CS)C(=O)O` [N-acetylcysteine], the “intracellular levels of glutathione” value [1] is given as “actively increase the intracellular levels of glutathione without causing any toxicity” and the tolerability in humans [2] is given as “tolerated by humans very well”.

In the case of calcium ascorbate [vitamin C], the radioprotectant value [8] is listed as “marked radioprotectant value”.
